Key:
EGFR = EGFR (Homo sapiens (Human), UniProt P00533); assay: HTRF KinEASE-TK kinase assay, EGFR; format: biochemical; settings: 3 h preincubation; for remaining activity at 1 µM: 1 μM compound, read-out: % EGFR Remaining activity vs DMSO (1 μM, 3 h); for remaining activity at 10 µM: 10 μM compound, read-out: % EGFR Remaining activity vs DMSO (10 μM, 3 h); for IC50: dose response, read-out: EGFR Inhibition IC50
Outline: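 Buffer contained 5 mM MgCl2, 2 mM MnCl2 and 1 mM TCEP; compounds at two final concentrations, 1 and 10 uM, with 0.5% DMSO, pre-incubated with the enzyme.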

BTK [1] = biological target: T1, BTK (Homo sapiens (Human), UniProt Q06187); assay: Ramos RA1 cell lysis and immunoassay, phospho-BTK (Y223) inhibition; format: cell-based; parameters: key: X: BTK bound and autophosphoration of BTK inhibited in cells; settings: RAMOS cells, compound concentration 1 μM
T1 sequence (Q06187 whole entry): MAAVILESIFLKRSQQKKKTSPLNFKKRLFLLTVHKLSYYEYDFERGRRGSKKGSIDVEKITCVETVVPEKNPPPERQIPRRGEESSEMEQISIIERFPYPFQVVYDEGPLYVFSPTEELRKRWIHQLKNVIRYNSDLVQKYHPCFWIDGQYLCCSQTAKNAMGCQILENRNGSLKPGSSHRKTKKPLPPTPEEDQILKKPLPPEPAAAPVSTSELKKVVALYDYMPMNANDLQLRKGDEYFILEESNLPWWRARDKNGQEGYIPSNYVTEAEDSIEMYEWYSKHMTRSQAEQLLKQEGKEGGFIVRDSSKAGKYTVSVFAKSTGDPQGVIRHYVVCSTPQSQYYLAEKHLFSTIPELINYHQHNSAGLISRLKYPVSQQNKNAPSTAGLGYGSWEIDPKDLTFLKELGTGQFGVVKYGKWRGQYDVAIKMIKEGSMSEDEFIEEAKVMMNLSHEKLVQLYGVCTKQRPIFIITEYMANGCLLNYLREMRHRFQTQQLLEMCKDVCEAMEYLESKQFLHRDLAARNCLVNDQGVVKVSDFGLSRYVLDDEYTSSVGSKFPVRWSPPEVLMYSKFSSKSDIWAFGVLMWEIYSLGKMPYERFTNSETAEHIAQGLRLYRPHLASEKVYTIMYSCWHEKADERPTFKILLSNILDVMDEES
Outline: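 Ramos RA1 cells treated with compound or DMSO for 24 h at 37° C., lysed in RIPA, analysed by Simple Western. Total BTK normalised to β-actin, pBTK (Y223) to total-protein reagent; both expressed relative to DMSO control.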

BTK [2] = biological target: T1, BTK; assay: HTRF KinEASE-TK kinase assay, BTK; format: biochemical; settings: 3 h preincubation; for remaining activity at 1 µM: 1 μM compound, read-out: % BTK Remaining activity vs DMSO (1 μM, 3 h); for remaining activity at 10 µM: 10 μM compound, read-out: % BTK Remaining activity vs DMSO (10 μM, 3 h); for IC50: dose response, read-out: BTK Inhibition IC50
Outline: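 Read-out was the 665 nm to 620 nm ratio, taken 60 min after detection, reflecting phosphorylated biotinylated substrate. Before this, BTK reacted 45 min with substrate and ATP in kinase buffer supplemented with MnCl2 (10 mM), MgCl2 (5 mM), ATPγS (1 uM) and TCEP (1 mM).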

BMX = BMX (Homo sapiens (Human), UniProt P51813); assay: HTRF KinEASE-TK kinase assay, BMX; format: biochemical; settings: for remaining activity at 1 µM: 1 uM compound; for remaining activity at 1 µM / remaining activity at 10 µM: 3 h preincubation; for remaining activity at 10 µM: 10 uM compound; for IC50: dose response
Sequence of BMX (P51813 whole entry): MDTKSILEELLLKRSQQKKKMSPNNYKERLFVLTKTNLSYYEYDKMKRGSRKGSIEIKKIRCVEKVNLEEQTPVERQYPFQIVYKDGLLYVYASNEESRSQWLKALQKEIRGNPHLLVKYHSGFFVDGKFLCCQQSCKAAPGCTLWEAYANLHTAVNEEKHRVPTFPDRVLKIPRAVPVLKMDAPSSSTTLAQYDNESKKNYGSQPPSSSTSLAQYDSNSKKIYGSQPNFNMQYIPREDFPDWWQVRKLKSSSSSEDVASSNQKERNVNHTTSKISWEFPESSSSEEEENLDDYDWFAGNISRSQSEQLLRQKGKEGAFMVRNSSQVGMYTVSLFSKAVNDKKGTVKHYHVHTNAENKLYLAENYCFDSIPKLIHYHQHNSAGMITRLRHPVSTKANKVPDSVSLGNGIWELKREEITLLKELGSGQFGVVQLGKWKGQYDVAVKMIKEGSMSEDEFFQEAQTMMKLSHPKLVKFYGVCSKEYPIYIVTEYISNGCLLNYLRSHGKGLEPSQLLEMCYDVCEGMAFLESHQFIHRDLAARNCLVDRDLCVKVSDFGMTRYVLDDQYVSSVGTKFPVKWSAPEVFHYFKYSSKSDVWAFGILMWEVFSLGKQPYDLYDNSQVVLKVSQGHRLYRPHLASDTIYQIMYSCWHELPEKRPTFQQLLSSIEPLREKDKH
Outline: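 Phosphorylation was quantified by HTRF KinEASE-TK as the 665/620 nm ratio, read 60 min after EDTA stop with SA-XL665 (31.25 nM) and europium antibody. Before the reaction, 3.03 nM BMX was preincubated with compound for 3 hours at room temperature, and the reaction was started with biotinylated substrate plus ATP.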

RIPK2 = RIPK2 (Homo sapiens (Human), UniProt O43353); assay: In vitro RIPK2 inhibition; format: biochemical; settings: for remaining activity at 1 µM: read-out: % RIPK2 Remaining activity vs DMSO (1 μM, 3 h); for remaining activity at 10 µM: read-out: % RIPK2 Remaining activity vs DMSO (10 μM, 3 h)
Sequence of RIPK2 (O43353 whole entry, species assumed): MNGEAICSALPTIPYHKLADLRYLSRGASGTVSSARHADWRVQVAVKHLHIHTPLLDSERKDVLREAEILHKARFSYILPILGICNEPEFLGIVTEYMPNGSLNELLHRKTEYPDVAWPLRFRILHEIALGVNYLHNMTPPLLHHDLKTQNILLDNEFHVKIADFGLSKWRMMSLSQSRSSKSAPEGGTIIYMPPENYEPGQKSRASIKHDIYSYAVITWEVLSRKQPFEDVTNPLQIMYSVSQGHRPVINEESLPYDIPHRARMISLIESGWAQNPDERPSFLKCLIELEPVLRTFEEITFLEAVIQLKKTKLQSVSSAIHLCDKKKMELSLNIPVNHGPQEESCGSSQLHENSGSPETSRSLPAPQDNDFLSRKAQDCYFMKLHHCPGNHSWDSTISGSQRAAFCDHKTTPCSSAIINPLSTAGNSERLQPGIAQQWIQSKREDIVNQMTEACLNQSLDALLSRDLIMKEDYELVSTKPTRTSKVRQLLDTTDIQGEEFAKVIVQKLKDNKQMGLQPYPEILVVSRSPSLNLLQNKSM

JAK3 = JAK3 (Homo sapiens (Human), UniProt P52333); assay: HTRF KinEASE-TK kinase assay, JAK3; format: biochemical; settings: for remaining activity at 1 µM: read-out: % JAK3 Remaining activity vs DMSO (1 μM, 3 h); for remaining activity at 10 µM: read-out: % JAK3 Remaining activity vs DMSO (10 μM, 3 h)
Sequence of JAK3 (P52333 781-1124): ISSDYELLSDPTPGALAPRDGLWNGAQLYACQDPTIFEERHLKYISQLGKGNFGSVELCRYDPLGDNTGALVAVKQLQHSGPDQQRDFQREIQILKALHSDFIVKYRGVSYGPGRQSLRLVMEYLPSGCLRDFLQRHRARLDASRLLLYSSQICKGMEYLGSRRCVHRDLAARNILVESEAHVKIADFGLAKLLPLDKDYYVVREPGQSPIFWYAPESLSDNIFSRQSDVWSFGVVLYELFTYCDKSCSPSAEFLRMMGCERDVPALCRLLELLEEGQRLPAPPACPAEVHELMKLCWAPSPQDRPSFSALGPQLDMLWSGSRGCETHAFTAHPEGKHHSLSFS
Outline: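 HTRF read-out: the Em665/Em620 ratio, measured 60 min after stopping with EDTA, 31.25 nM SA-XL665 and 100-fold diluted Eu-antibody, was taken as phosphorylated substrate. Beforehand, 0.21 nM JAK3 (0.0133 ng/µl) sat with compound for 3 h at room temperature, then biotinylated substrate plus ATP started the reaction.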

FGFR4 = FGFR4 (Homo sapiens (Human), UniProt P22455); assay: HTRF KinEASE-TK kinase assay, FGFR4; format: biochemical; settings: for remaining activity at 1 µM: read-out: % FGFR4 Remaining activity vs DMSO (1 μM, 3 h); for remaining activity at 10 µM: read-out: % FGFR4 Remaining activity vs DMSO (10 μM, 3 h); for IC50: dose response
Sequence of FGFR4 (P22455 22-802): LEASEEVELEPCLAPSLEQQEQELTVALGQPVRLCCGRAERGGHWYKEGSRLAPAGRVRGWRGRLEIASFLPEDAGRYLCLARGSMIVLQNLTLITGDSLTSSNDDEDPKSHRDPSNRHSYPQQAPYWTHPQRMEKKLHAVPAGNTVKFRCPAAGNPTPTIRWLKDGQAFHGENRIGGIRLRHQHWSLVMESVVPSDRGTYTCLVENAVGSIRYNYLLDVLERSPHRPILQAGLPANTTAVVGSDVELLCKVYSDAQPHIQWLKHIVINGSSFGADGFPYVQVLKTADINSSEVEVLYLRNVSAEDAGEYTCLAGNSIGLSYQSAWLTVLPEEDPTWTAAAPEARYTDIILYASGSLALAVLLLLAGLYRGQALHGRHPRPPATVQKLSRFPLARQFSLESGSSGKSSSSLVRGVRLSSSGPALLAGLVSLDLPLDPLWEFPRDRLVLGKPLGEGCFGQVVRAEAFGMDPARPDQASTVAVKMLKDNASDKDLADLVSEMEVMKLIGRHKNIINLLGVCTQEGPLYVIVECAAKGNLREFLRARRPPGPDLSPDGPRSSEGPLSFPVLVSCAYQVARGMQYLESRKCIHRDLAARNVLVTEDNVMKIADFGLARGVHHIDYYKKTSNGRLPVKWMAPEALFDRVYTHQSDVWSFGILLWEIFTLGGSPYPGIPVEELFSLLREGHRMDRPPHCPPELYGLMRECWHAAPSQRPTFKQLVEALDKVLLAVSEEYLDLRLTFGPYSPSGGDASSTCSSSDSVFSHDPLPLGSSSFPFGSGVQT
Outline: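 HTRF ratio (Em 665/620 nm) measured 60 min after EDTA stop with SA-XL665 (31.25 nM) and europium antibody reflects phosphorylated biotinylated substrate. Before substrate/ATP addition, 5.12 nM (0.333 ng/ul) FGFR4 sat with compound 3 h at room temperature.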

Sequence of EGFR (P00533 25-1210): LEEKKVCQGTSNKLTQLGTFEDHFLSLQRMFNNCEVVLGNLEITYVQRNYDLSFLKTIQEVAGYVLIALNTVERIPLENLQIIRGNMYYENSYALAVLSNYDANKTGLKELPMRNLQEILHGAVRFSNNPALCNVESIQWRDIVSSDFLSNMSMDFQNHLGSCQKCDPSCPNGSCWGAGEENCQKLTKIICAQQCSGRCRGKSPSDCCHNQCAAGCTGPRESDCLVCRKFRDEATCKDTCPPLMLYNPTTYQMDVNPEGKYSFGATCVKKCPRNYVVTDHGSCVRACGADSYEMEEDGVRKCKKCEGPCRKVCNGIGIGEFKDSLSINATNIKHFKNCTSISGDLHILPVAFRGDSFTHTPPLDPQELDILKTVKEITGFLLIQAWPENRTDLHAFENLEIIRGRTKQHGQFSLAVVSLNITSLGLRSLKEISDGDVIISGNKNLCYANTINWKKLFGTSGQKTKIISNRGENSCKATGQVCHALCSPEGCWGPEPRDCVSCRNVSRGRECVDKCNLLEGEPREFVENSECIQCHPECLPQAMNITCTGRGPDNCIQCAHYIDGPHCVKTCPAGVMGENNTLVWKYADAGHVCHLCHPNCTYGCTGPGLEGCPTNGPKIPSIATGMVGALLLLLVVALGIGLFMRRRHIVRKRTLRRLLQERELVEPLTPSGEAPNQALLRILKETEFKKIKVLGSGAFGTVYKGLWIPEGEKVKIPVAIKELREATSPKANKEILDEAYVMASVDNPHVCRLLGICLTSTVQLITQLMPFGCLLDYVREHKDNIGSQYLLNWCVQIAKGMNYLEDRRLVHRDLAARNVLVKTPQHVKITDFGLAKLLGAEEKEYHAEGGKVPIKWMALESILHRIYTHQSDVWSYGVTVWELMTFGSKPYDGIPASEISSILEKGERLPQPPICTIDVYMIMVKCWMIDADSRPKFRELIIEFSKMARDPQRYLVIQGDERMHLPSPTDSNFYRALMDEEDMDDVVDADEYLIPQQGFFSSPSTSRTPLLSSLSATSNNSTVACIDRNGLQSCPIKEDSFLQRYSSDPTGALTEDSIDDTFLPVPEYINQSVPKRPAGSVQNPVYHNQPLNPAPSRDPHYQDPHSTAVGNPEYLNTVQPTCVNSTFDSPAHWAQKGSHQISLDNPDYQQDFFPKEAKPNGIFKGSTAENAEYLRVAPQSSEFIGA

| remaining activity at 1 µM (EGFR) [%] | remaining activity at 10 µM (EGFR) [%] | IC50 (EGFR) [nM] | pBTK inhibition (RAMOS, 24 h) (BTK [1]) | remaining activity at 1 µM (BTK [2]) [%] | remaining activity at 10 µM (BTK [2]) [%] | IC50 (BTK [2]) [nM] | remaining activity at 1 µM (BMX) [%] | remaining activity at 10 µM (BMX) [%] | IC50 (BMX) [nM] | remaining activity at 1 µM (RIPK2) [%] | remaining activity at 10 µM (RIPK2) [%] | IC50 (JAK3; dose response) [nM] | remaining activity at 1 µM (JAK3) [%] | remaining activity at 10 µM (JAK3) [%] | remaining activity at 1 µM (FGFR4) [%] | remaining activity at 10 µM (FGFR4) [%] | IC50 (FGFR4) [nM] | SMILES |
| --- | --- | --- | --- | --- | --- | --- | --- | --- | --- | --- | --- | --- | --- | --- | --- | --- | --- | --- |
| < 50 | < 50 | < 1000 | X | < 50 | < 50 | < 1000 | < 50 | < 50 | < 1000 | 50 to 90 | > 90 | > 1000 | < 50 | < 50 | > 90 | > 90 |  | C[S@+]([O-])c1c(F)c(F)c(F)c(F)c1C(=O)N1CC(n2nc(-c3ccc(Oc4ccccc4)cc3)c3c(N)ncnc32)C1 (racemic) [Compound I-37, (3-(4-amino-3-(4-phenoxyphenyl)-1H-pyrazolo[3,4-d]pyrimidin-1-yl)azetidin-1-yl)(2,3,4,5-tetrafluoro-6-(methylsulfinyl)phenyl)methanone] |
| < 50 | < 50 | < 1000 | X | < 50 | < 50 |  | < 50 | < 50 |  | > 90 | > 90 |  | 50 to 90 | < 50 | < 50 | < 50 | < 1000 | CS(=O)(=O)c1c(F)c(F)c(F)c(F)c1C(=O)NCCCn1nc(-c2ccc(Oc3ccccc3)cc2)c2c(N)ncnc21 [Compound I-39, N-(3-(4-amino-3-(4-phenoxyphenyl)-1H-pyrazolo[3,4-d]pyrimidin-1-yl)propyl)-2,3,4,5-tetrafluoro-6-(methylsulfonyl)benzamide] |
| 50 to 90 | < 50 |  | X | < 50 | 50 to 90 | < 1000 | < 50 | < 50 | < 1000 | > 90 | > 90 |  | > 90 | 50 to 90 | 50 to 90 | 50 to 90 |  | Nc1ncnc2c1c(-c1ccc(Oc3ccccc3)cc1)nn2CCNC(=O)c1c(F)c(F)c(F)c(F)c1S(N)(=O)=O [Compound I-42, N-(2-(4-amino-3-(4-phenoxyphenyl)-1H-pyrazolo[3,4-d]pyrimidin-1-yl)ethyl)-2,3,4,5-tetrafluoro-6-sulfamoylbenzamide] |
| > 90 | > 90 |  | X | < 50 | < 50 |  | < 50 | < 50 |  | < 50 | < 50 |  | 50 to 90 | 50 to 90 | < 50 | < 50 | < 1000 | COCCOc1ccc(Nc2ncc(F)c(Nc3cccc(NC(=O)c4c(F)c(F)c(F)c(F)c4S(=O)(=O)N(C)C)c3)n2)cc1 [Compound I-59, 2-(N,N-dimethylsulfamoyl)-3,4,5,6-tetrafluoro-N-(3-((5-fluoro-2-((4-(2-methoxyethoxy)phenyl)amino)pyrimidin-4-yl)amino)phenyl)benzamide] |
| < 50 | < 50 |  | X | < 50 | < 50 |  | < 50 | < 50 | < 1000 | > 90 | > 90 |  | > 90 | > 90 | 50 to 90 | < 50 |  | CN(C)S(=O)(=O)c1c(F)c(F)c(F)c(F)c1C(=O)NCCCn1nc(-c2ccc(Oc3ccccc3)cc2)c2c(N)ncnc21 [Compound I-41, N-(3-(4-amino-3-(4-phenoxyphenyl)-1H-pyrazolo[3,4-d]pyrimidin-1-yl)propyl)-2-(N,N-dimethylsulfamoyl)-3,4,5,6-tetrafluorobenzamide] |
| < 50 | < 50 |  | X | < 50 | < 50 | < 1000 | < 50 | < 50 | < 1000 | > 90 | > 90 |  | 50 to 90 | < 50 | < 50 | < 50 | < 1000 | Nc1ncnc2c1c(-c1ccc(Oc3ccccc3)cc1)nn2CCCNC(=O)c1c(F)c(F)c(F)c(F)c1S(N)(=O)=O [Compound I-34, N-(3-(4-amino-3-(4-phenoxyphenyl)-1H-pyrazolo[3,4-d]pyrimidin-1-yl)propyl)-2,3,4,5-tetrafluoro-6-sulfamoylbenzamide] |
| > 90 | > 90 |  | X | 50 to 90 | < 50 |  | 50 to 90 | 50 to 90 |  | < 50 | 50 to 90 |  | > 90 | > 90 | 50 to 90 | > 90 |  | C[S@+]([O-])c1c(F)c(F)c(F)c(F)c1C(=O)Nc1ncnc2[nH]ccc12 (racemic) [Compound I-46, 2,3,4,5-tetrafluoro-6-(methylsulfinyl)-N-(7H-pyrrolo[2,3-d]pyrimidin-4-yl)benzamide] |
| > 90 | < 50 |  | X | < 50 | < 50 | < 1000 | < 50 | < 50 |  | 50 to 90 | > 90 |  | > 90 | 50 to 90 | 50 to 90 | < 50 |  | CN(CCn1nc(-c2ccc(Oc3ccccc3)cc2)c2c(N)ncnc21)C(=O)c1c(F)c(F)c(F)c(F)c1S(N)(=O)=O [Compound I-33, N-(2-(4-amino-3-(4-phenoxyphenyl)-1H-pyrazolo[3,4-d]pyrimidin-1-yl)ethyl)-2,3,4,5-tetrafluoro-N-methyl-6-sulfamoylbenzamide] |
| > 90 | > 90 |  | X | < 50 | < 50 |  | < 50 | < 50 |  |  |  |  | > 90 | 50 to 90 | < 50 | < 50 | > 1000 | Nc1ncnc2c1c(-c1ccc(Oc3ccccc3)cc1)nn2[C@@H]1CCN(S(=O)(=O)c2c(F)c(F)c(F)c(F)c2OCF)C1 [Compound I-24, (R)-3-(4-phenoxyphenyl)-1-(1-((2,3,4,5-tetrafluoro-6-(fluoromethoxy)phenyl)sulfonyl)pyrrolidin-3-yl)-1H-pyrazolo[3,4-d]pyrimidin-4-amine] |

From patent publication US20240018153A1, “BENZENESULFONAMIDE DERIVATIVES AND USES THEREOF” (2692372 ONTARIO, INC., priority 2020, published 2024)
